Measured values from ChEMBL document CHEMBL4765277, “Design, synthesis and biological evaluation of novel indazole-based derivatives as potent HDAC inhibitors via fragment-based virtual screening” (Eur J Med Chem, 2020).
pIC50: −log10 of the molar value. The source made the active and inactive calls. No cut-off for these calls is given here.

Assays:
Histone deacetylase 1 = Histone deacetylase 1 (Homo sapiens, UniProt Q13547); assay: Inhibition of recombinant human C-terminal His/FLAG-tagged HDAC1 (1 to end residues) expressed in sf9 insect cells using Boc-Lys(Ac)-AMC as substrate incubated for 60 mins by fluorescence assay
Sequence of Histone deacetylase 1 (Q13547 whole entry): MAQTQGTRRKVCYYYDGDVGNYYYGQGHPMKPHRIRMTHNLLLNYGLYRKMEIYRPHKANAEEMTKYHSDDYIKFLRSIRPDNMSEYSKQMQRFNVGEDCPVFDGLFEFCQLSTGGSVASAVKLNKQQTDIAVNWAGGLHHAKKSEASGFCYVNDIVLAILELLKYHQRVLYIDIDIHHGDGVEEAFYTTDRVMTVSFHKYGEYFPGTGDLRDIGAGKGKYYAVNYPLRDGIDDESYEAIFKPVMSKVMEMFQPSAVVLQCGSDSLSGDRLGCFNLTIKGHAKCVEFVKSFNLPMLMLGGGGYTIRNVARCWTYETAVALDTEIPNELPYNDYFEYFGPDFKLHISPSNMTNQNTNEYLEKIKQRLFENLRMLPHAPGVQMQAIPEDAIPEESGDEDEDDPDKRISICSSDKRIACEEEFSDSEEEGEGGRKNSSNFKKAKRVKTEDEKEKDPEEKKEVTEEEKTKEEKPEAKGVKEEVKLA

Histone deacetylase 2 = Histone deacetylase 2 (Homo sapiens, UniProt Q92769); assay: Inhibition of recombinant human C-terminal His-tagged HDAC2 (1 to end residues) expressed in sf9 insect cells using Boc-Lys(Ac)-AMC as substrate incubated for 60 mins by fluorescence assay
Sequence of Histone deacetylase 2 (Q92769 whole entry): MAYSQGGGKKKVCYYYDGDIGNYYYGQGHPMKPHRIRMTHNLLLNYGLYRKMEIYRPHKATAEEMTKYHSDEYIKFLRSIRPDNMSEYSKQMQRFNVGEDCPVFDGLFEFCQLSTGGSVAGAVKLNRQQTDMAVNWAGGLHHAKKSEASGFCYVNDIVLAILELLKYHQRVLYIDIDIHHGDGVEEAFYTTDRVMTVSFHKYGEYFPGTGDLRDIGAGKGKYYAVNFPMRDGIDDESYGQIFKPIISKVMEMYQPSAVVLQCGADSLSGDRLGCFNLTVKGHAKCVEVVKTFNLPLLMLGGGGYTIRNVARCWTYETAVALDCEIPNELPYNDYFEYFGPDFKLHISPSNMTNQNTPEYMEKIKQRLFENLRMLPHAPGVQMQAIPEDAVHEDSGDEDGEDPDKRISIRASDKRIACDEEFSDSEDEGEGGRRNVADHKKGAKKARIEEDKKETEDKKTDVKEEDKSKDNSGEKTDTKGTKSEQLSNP

Histone deacetylase 8 = target: T1, Histone deacetylase 8 (Homo sapiens, UniProt Q9BY41); assay: Inhibition of recombinant human full length C-terminal His-tagged HDAC8 expressed in sf9 insect cells using Boc-Lys(TFA)-AM as substrate incubated for 60 mins by fluorescence assay
T1 sequence (Q9BY41 whole entry): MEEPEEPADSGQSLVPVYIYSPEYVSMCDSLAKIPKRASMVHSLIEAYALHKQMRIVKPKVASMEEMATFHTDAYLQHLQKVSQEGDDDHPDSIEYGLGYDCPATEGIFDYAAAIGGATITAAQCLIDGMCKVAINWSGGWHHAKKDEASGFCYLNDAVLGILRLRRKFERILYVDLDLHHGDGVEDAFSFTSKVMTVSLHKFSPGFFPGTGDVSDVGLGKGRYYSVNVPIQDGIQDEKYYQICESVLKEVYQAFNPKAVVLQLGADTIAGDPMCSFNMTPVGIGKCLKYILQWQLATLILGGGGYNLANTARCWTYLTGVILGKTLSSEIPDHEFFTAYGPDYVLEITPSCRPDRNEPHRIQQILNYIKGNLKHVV

HCT-116 [1] = assay: Antiproliferative activity against human HCT-116 cells assessed as reduction in cell viability after 72 hrs by MTT assay; assay type: functional, cell-based; conditions: HCT-116, 72 h
HeLa = assay: cells; assay type: functional, cell-based; conditions: Homo sapiens, 72 h
Description: Antiproliferative activity against human HeLa cells assessed as reduction in cell viability after 72 hrs by MTT assay

HCT-116 [2] = assay: Inhibition of HDAC in human HCT-116 cells assessed as up regulation of acetylated histone H3 protein expression at 1.25 to 10 uM after 8 hrs by Western blot analysis; assay type: cell-based; conditions: dose 1.25-10 µM
HCT-116 [3] = assay: Inhibition of HDAC in human HCT-116 cells assessed as up regulation of acetylated tubulin protein expression at 1.25 to 10 uM after 8 hrs by Western blot analysis; assay type: cell-based; conditions: dose 1.25-10 µM
HCT-116 [4] = assay: Induction of cell cycle arrest in human HCT116 cells assessed as cell accumulation at G0/G1 phase at 3 uM after 24 hrs by Rnase/PI staining based flow cytometric analysis (reference value: 48.4%); assay type: functional
HCT-116 [5] = assay: Induction of cell cycle arrest in human HCT116 cells assessed as cell accumulation at S phase at 3 uM after 24 hrs by Rnase/PI staining based flow cytometric analysis (reference value: 25.2%); assay type: functional
HCT-116 [6] = assay: Induction of cell cycle arrest in human HCT116 cells assessed as cell accumulation at G2/M phase at 3 uM after 24 hrs by Rnase/PI staining based flow cytometric analysis (reference value: 26.4%); assay type: functional
HCT-116 [7] = assay: Induction of apoptosis in human HCT-116 cells after 24 hrs by Annexin V-FITC/PI staining based flow cytometric analysis; assay type: functional, cell-based
HCT-116 [8] = assay: Induction of apoptosis in human HCT-116 cells assessed as viable cells at 10 uM after 24 hrs by Annexin V-FITC/PI staining based flow cytometric analysis (reference value: 90.34%); assay type: functional; conditions: read-out: Activity
HCT-116 [9] = assay: Induction of apoptosis in human HCT-116 cells assessed as viable cells at 3 uM after 24 hrs by Annexin V-FITC/PI staining based flow cytometric analysis (reference value: 90.34%); assay type: functional; conditions: Homo sapiens, HCT-116, read-out: Activity
HCT-116 [10] = assay: Induction of apoptosis in human HCT-116 cells assessed as viable cells at 1 uM after 24 hrs by Annexin V-FITC/PI staining based flow cytometric analysis (reference value: 90.34%); assay type: functional; conditions: Homo sapiens, HCT-116, read-out: Activity
HCT-116 [11] = assay: Induction of apoptosis in human HCT-116 cells assessed as early apoptotic cells at 10 uM after 24 hrs by Annexin V-FITC/PI staining based flow cytometric analysis (reference value: 4.01%); assay type: functional
HCT-116 [12] = assay: Induction of apoptosis in human HCT-116 cells assessed as early apoptotic cells at 3 uM after 24 hrs by Annexin V-FITC/PI staining based flow cytometric analysis (reference value: 4.01%); assay type: functional
HCT-116 [13] = assay: Induction of apoptosis in human HCT-116 cells assessed as early apoptotic cells at 1 uM after 24 hrs by Annexin V-FITC/PI staining based flow cytometric analysis (reference value: 4.01%); assay type: functional
HCT-116 [14] = assay: Induction of apoptosis in human HCT-116 cells assessed as late apoptotic cells at 10 uM after 24 hrs by Annexin V-FITC/PI staining based flow cytometric analysis (reference value: 5.14%); assay type: functional
HCT-116 [15] = assay: Induction of apoptosis in human HCT-116 cells assessed as late apoptotic cells at 3 uM after 24 hrs by Annexin V-FITC/PI staining based flow cytometric analysis (reference value: 5.14%); assay type: functional
HCT-116 [16] = assay: Induction of apoptosis in human HCT-116 cells assessed as late apoptotic cells at 1 uM after 24 hrs by Annexin V-FITC/PI staining based flow cytometric analysis (reference value: 5.14%); assay type: functional
HCT-116 [17] = assay: Induction of apoptosis in human HCT-116 cells assessed as necrotic cells at 10 uM after 24 hrs by Annexin V-FITC/PI staining based flow cytometric analysis (reference value: 0.51%); assay type: functional
HCT-116 [18] = assay: Induction of apoptosis in human HCT-116 cells assessed as necrotic cells at 3 uM after 24 hrs by Annexin V-FITC/PI staining based flow cytometric analysis (reference value: 0.51%); assay type: functional
HCT-116 [19] = assay: Induction of apoptosis in human HCT-116 cells assessed as necrotic cells at 1 uM after 24 hrs by Annexin V-FITC/PI staining based flow cytometric analysis (reference value: 0.51%); assay type: functional
MCF7 = assay: cells; conditions: Homo sapiens, MCF7, 72 h
Description: Antiproliferative activity against human MCF7 cells assessed as reduction in cell viability after 72 hrs by MTT assay

COc1ccc(-c2ccc3c(NC(=O)CCCCCCC(=O)NO)n[nH]c3c2)cc1
pIC50 (Histone deacetylase 1): 8.57
pIC50 (Histone deacetylase 2): 8.38
pIC50 (Histone deacetylase 8): 8.44
pIC50 (HCT-116 [1]): 5.68
pIC50 (HeLa): 5.36
inhibition (HCT-116 [2]): Active
inhibition (HCT-116 [3]): Active
Activity (HCT-116 [4]): 29.8%
Activity (HCT-116 [5]): 26.9%
Activity (HCT-116 [6]): 43.3%
Activity (HCT-116 [7]): Dose-dependent effect
viability at 10 µM (HCT-116 [8]): 20.6%
viability at 3 µM (HCT-116 [9]): 31.4%
viability at 1 µM (HCT-116 [10]): 42.4%
Activity (HCT-116 [11]): 15.64%
Activity (HCT-116 [12]): 13.72%
Activity (HCT-116 [13]): 17.34%
Activity (HCT-116 [14]): 62.58%
Activity (HCT-116 [15]): 54.58%
Activity (HCT-116 [16]): 40.02%
Activity (HCT-116 [17]): 1.19%
Activity (HCT-116 [18]): 0.33%
Activity (HCT-116 [19]): 0.27%
pIC50 (MCF7): 6.05
